In series [1] the target is T1, Plasma kallikrein (Homo sapiens, UniProt P03952). Nature of the series: Inhibition of purified human plasma kallikrein using H-D-Pro-Phe-Arg-pNA.2HCl as substrate measured after 3 mins by microplate reader analysis.
For series [2], the target named is T1, Plasma kallikrein. Nature of the series: Inhibition of purified human plasma kallikrein using H-D-Pro-Phe-Arg-pNA.2HCl as substrate at 5 uM measured after 3 mins by microplate reader analysis relative to control.
Series [3] concerns the target T1, Plasma kallikrein. Nature of the series: Inhibition of endogenous human plasma kallikrein using Z-Phe-Arg-AMC.HCl as substrate measured after 5 mins by microplate reader analysis.
A short description of series [4]: Cmax in rat at 5 mg/kg, po. The arrangement: route oral, dose 5 mg/kg. As to conditions: in vivo. Format: ADME, organism-based.
The nature of series [5]: AUC in rat at 5 mg/kg, po after 12 hrs. Format: ADME, organism-based. Set-up: route oral, time 12 hrs, dose 5 mg/kg. As to conditions: in vivo.

A word on the IC50: it is the concentration that inhibits the measured activity by half. A lower IC50 goes with higher potency. The inhibition is the relative decrease from the control value, in per cent. The Cmax is the peak of the concentration-time curve. The term AUC denotes the area under the concentration-time curve, a measure of exposure. The low end stands for low exposure, the high end for high exposure.

T1 sequence (P03952 20-390 limits assumed): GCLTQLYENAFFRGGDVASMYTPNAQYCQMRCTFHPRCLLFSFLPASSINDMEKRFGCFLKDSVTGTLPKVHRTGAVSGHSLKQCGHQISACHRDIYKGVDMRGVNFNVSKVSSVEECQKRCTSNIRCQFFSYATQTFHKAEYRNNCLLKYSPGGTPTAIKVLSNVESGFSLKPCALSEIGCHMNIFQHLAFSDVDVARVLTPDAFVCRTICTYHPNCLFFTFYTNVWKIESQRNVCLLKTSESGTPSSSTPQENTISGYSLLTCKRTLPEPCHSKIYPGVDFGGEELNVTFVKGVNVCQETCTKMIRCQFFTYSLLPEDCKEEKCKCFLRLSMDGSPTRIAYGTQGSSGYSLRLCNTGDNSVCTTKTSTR
T1 sequence (P03952 391-638 limits assumed): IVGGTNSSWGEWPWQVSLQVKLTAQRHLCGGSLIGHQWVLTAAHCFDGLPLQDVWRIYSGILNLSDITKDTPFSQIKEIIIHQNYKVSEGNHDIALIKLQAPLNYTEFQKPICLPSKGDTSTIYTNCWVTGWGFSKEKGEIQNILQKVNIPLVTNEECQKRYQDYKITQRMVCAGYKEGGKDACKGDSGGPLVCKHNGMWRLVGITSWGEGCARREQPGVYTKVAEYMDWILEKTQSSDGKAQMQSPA

With `NCc1cccc(-n2ccc(C(F)(F)F)n2)c1`, 1000 µM corresponded to half-maximal inhibition in series [1] (IC50).
On the same count and under the same terms, the result for `NCc1cccc(-n2nc(C(F)(F)F)cc2C(=O)Nc2ccc(C(O)c3ccccc3)cc2F)c1` (stereo unspecified) reads 1 µM.
`NCc1cccc(-n2nc(C(F)(F)F)cc2C(=O)Nc2ccc(N3CCCCC3)cc2F)c1`: in series [2], the inhibition is 7.5%.
For `CS(=O)(=O)c1cccc(-c2ccc(NC(=O)c3cc(C(F)(F)F)nn3-c3cccc(CN)c3)c(F)c2)c1`, in series [1], the concentration for half-maximal inhibition (IC50) was 1.23 µM.
With `NCc1cccc(-n2nc(C(F)(F)F)cc2C(=O)Nc2ccc(F)c(C(OCC3CC3)c3ccccc3)c2)c1` (stereo unspecified), the half-inhibitory concentration (IC50) is more than 1 µM in series [3] and 0.708 µM in series [1].
In turn, `NCc1cccc(-n2nc(C(F)(F)F)cc2C(=O)Nc2ccc(-c3ccc(C(N)=O)cc3)cc2F)c1` displayed an IC50 in series [1] of 0.395 µM.
Take `NCc1cccc(-n2nc(C(F)(F)F)cc2C(=O)Nc2cc(C(NCC3CC3)c3ccncc3)ccc2F)c1` (stereo unspecified): the half-inhibitory concentration (IC50) in series [3] was 0.0167 µM; in series [1] it was 0.0052 µM. Further, in series [4], the peak level (Cmax) was 22 ng/mL. The compound also had an AUC at 12 h in series [5] of 73 ng·h/mL.
As to `N#Cc1ccc(C(NCC2CC2)c2ccc(F)c(NC(=O)c3cc(C(F)(F)F)nn3-c3cccc(CN)c3)c2)cc1` (stereo unspecified), the half-maximal inhibitory concentration (IC50) in series [3] is 0.019 µM; in series [1] it was 0.0072 µM.
`NCc1cccc(-n2nc(C(F)(F)F)cc2C(=O)Nc2ccccc2F)c1` had a half-maximal inhibitory concentration (IC50) in series [1] of 27.3 µM.
For the compound `NCc1cccc(-n2nc(C(F)(F)F)cc2C(=O)Nc2cc(C(O)c3ccccc3)ccc2F)c1` (stereo unspecified), the 50% inhibitory concentration (IC50) in series [1] amounted to 0.71 µM.
In turn, `NCc1cccc(-n2nc(C(F)(F)F)cc2C(=O)Nc2ccc(C(OCC3CC3)c3ccccc3)cc2F)c1` (stereo unspecified) registered an IC50 in series [1] of 0.651 µM.
For the compound `NCc1cccc(-n2nc(C(F)(F)F)cc2C(=O)Nc2cc(F)cc(C(OCC3CC3)c3ccccc3)c2)c1` (stereo unspecified), the 50% inhibitory concentration (IC50) is more than 1 µM in series [3] and 0.1 µM in series [1].
Compound `NCc1cccc(-n2nc(C(F)(F)F)cc2C(=O)Nc2ccc(-c3ccc(S(N)(=O)=O)cc3)cc2F)c1` had an IC50 in series [1] of 0.395 µM.
For `NCc1cccc(-n2nc(C(F)(F)F)cc2C(=O)Nc2ccccc2)c1`, the concentration for half-maximal inhibition (IC50) in series [1] worked out at 22.6 µM.
In series [1], `NCc1cccc(-n2nc(C(F)(F)F)cc2C(=O)Nc2ccc(-c3ccccc3)cc2F)c1` showed a 50% inhibitory concentration (IC50) of 1.02 µM.
On to `NCc1cccc(-n2nc(C(F)(F)F)cc2C(=O)Nc2cc(C(NCC3CC3)c3cccnc3)ccc2F)c1` (stereo unspecified), for which the half-inhibitory concentration (IC50) in series [3] and in series [1] was 0.01 µM in each case. In series [4], this compound registered a Cmax of 58 ng/mL. The area under the curve (AUC) at 12 h in series [5] was determined as 128 ng·h/mL.
As to `NCc1cccc(-n2nc(C(F)(F)F)cc2C(=O)Nc2cc(C(NCC3CC3)c3ccccn3)ccc2F)c1` (stereo unspecified), the IC50 in series [3] stood at 0.0267 µM; in series [1] it was 0.0104 µM. For the same compound, in series [4], the peak level (Cmax) was 45 ng/mL. Also, the exposure (AUC) at 12 h in series [5] was found to be 131 ng·h/mL.
Turning to `NCc1cccc(-n2nc(C(F)(F)F)cc2C(=O)Nc2cccc(C(O)c3ccccc3)c2F)c1` (stereo unspecified), half-maximal inhibition in series [1] (IC50) was put at 0.149 µM.
In the case of `NCc1cccc(-n2nc(C(F)(F)F)cc2C(=O)Nc2ccc(-c3ccccc3)cc2)c1`, the IC50 in series [1] is 2.9 µM.
Consider `CCOC(c1ccccc1)c1ccc(F)c(NC(=O)c2cc(C(F)(F)F)nn2-c2cccc(CN)c2)c1` (stereo unspecified), for which the values for the IC50 in series [3] and in series [1] were 1.28 µM and 0.134 µM, respectively.
With `COC(c1ccccc1)c1ccc(F)c(NC(=O)c2cc(C(F)(F)F)nn2-c2cccc(CN)c2)c1` (stereo unspecified), half-maximal inhibition in series [1] (IC50) required 0.231 µM.
In series [1], `NCc1cccc(-n2nc(C(F)(F)F)cc2C(=O)O)c1` returned an IC50 of 15.4 µM.
For the compound `NCc1cccc(-n2nc(C(F)(F)F)cc2C(=O)Nc2cccc(C(OCC3CC3)c3ccccc3)c2F)c1` (stereo unspecified), the IC50 in series [3] is more than 1 µM; in series [1] it was 0.037 µM.
As to `NCc1cccc(-n2nc(C(F)(F)F)cc2C(=O)Nc2cccc(C(OCC3CC3)c3ccccc3)c2)c1` (stereo unspecified), the IC50 in series [3] stood at 0.3 µM; in series [1], 0.0376 µM.
On to `NCc1cccc(-n2nc(C(F)(F)F)cc2C(=O)Nc2ccc(C3CC3)cc2F)c1`, for which 0.577 µM corresponded to half-maximal inhibition in series [1] (IC50).
`NCc1cccc(-n2cccn2)c1` returned a 50% inhibitory concentration (IC50) in series [1] of 3400 µM.
